# Source: patent publication US20230090708A1, “METHODS AND COMPOSITIONS FOR THE TREATMENT OF HEMANGIOMA” (MASSEY VENTURES LIMITED, priority 2020, published 2023)
# Entries after “also recorded” stand apart in the source; their conditions may differ. Like-named read-outs stand apart in the source and are kept apart here.
# How the values were obtained:
# [1] = system: proliferating infantile haemangioma cells; test: Example 2: single 100 μM dose on primary haemangioma cell line, MTT; format: cell-based, human; details: for inhibitory effect on haemangioma cell proliferation: 24, 48, 72 hours
# Description: (§1) An in vitro cell culture model of infantile hemangioma was developed to assess the impact of renin-angiotensin system inhibitors on cellular proliferation. A primary cell line of proliferating infantile hemangioma cells, including haemangioma stem cells, was derived from a tissue biopsy obtained from patients during the proliferating phase of the disease. The primary cell lines are cultured in 25 cm^2 flasks using standard culture media and conditions. The cultured cells are used to seed 96-well plates with a seed cell concentration of 2500 or 5000 cells per well, with additional culture media (200 μL). All studies are performed in triplicate. The plates are incubated overnight to allow cell adherence to the wells. The wells are photographed to confirm cell adherence and confluency. The appropriate drug(s) to be examined are subsequently added to the wells. After 24 hours, one set of plates (experimental and blank) is stopped. The media is aspirated from each well and stored frozen for possible future analyses. Media is added to the wells and an MTT determination is undertaken according to standard protocols. This is repeated at 48 and 72 hours. From the triplicate incubations of each drug concentration at each time, as well as for all controls, the mean±standard deviation is calculated. The net survival (optical density value) is calculated by subtracting the appropriate blank mean value from each cell culture. From the MTT data, the percentage of survival of cells in the presence of each concentration of drug after each time of culturing is determined. […] This model recapitulates the process of locally administering the drug directly to the hemangioma microenvironment, which is representative of diffusing the drug through skin to reach the target cells.
# [2] = system: proliferating infantile hemangioma cells derived from multiple patients (n=5); test: Example 4: single agents and combinations on five patient-derived cell lines, MTT; format: cell-based, human; details: for Individual Responders at 72 Hours with ≥30% Inhibition vs. Cells + Adjuvant: responders/cell lines; for Results Summary: 72 hours, n=5 cell lines; for Estimated Optimal Dosage Range in vitro / inhibition of all five patient-derived haemangioma cell lines: single agent
# Description: as §1, with “The experimental protocol was performed as per Example 1. Briefly, cells were seeded in 96-well plates at a concentration” for “This model recapitulates the process”, “2500 cells/well in triplicate for each” for “locally administering the”, “and drug combination. Drug(s) were added” for “directly”, “each well 24 hours after seeding and re-dosed every 24 hours. Cell viability was assessed by MTT assay after 24, 48, and 72 hours. All plates were performed in triplicate. Drugs were assessed alone and in combination as described in Table 3.” for “the hemangioma microenvironment, which is representative of diffusing the drug through skin to reach the target cells.”
# [3] = system: proliferating hemangioma cell lines (n=9); test: Example 6: single agents and combinations on nine primary cell lines, MTT, CompuSyn combination index; format: cell-based, human; details: 1 to 10 μM; 72 hours; n=9
# Description: (§2) An in vitro cell culture model of infantile hemangioma was developed to assess the impact of renin-angiotensin system inhibitors on cellular proliferation. A primary cell line of proliferating infantile hemangioma cells, including haemangioma stem cells, was derived from a tissue biopsy obtained from patients during the proliferating phase of the disease. The primary cell lines are cultured in 25 cm^2 flasks using standard culture media and conditions. The cultured cells are used to seed 96-well plates with a seed cell concentration of 2500 or 5000 cells per well, with additional culture media (200 μL). All studies are performed in triplicate.
# (§3) The plates are incubated overnight to allow cell adherence to the wells. The wells are photographed to confirm cell adherence and confluency. The appropriate drug(s) to be examined are subsequently added to the wells. After 24 hours, one set of plates (experimental and blank) is stopped. The media is aspirated from each well and stored frozen for possible future analyses. Media is added to the wells and an MTT determination is undertaken according to standard protocols. This is repeated at 48 and 72 hours.
# (§4) From the triplicate incubations of each drug concentration at each time, as well as for all controls, the mean±standard deviation is calculated. The net survival (optical density value) is calculated by subtracting the appropriate blank mean value from each cell culture. From the MTT data, the percentage of survival of cells in the presence of each concentration of drug after each time of culturing is determined.
# A study was undertaken using combinations of ACE inhibitors, beta blockers and angiotensin II type 2 receptor blockers to inhibit proliferating hemangioma cells. […] Patient histories pertaining to each cell line is described in Table 5.
# The experimental protocol was performed as per Example 1. Briefly, cells were seeded in 96-well plates at concentrations of 2500 cells/well in triplicate for each drug and drug combination. Drug(s) were added to each well 24 hours after seeding and re-dosed every 24 hours. Cell viability was assessed by MTT assay after 24, 48, and 72 hours. All plates were performed in triplicate. Drugs were assessed alone and in combination, as described in Table 6. Propranolol was used as a model beta blocker, cilazapril as a model ACE inhibitor, and SMM02 (L-159686) as a model AT2Ri. Synergy was measured using the CompuSyn open-source software protocol for quantifying synergism and antagonism that uses the median-effect equation and mass-action laws to generate a combination index (www.compusyn.com). Synergism, additive effects and antagonism are defined as a CI<1, CI=1, and CI>1, respectively.
# [4] = system: proliferating hemangioma cells; test: Experiment 7: different ACEi and beta blockers on one primary cell line, MTT; format: cell-based, human; details: for Results Summary: 72 hours, one cell line; for inhibition at 1 µM / inhibition at 10 µM: Homo sapiens, 72 h, read-out: Inhibition vs. Cells + Adjuvant at 72 Hours
# Description: as §2
# as §3, with “After 24 hours, one set of plates (experimental and blank) is stopped.” left out, “protocols.” for “protocols. This is repeated at 48 and 72 hours.”
# as §4
# Briefly, cells were seeded in 96-well plates at concentrations of 2500 cells/well in triplicate for each drug and drug combination. […] All plates were performed in triplicate. Beta blockers used in the study were (±)-propranolol, R-propranolol, S-propranolol, timolol, and betaxalol.
# [5] = molecular target: ACE (Homo sapiens, UniProt P12821); details: enzyme source not given; cited from earlier work
# [6] = cited from earlier work
# [7] = cited from earlier work; remark: listed apart in the source
# [8] = cited from earlier work; remark: listed apart in the source
# [9] = in words; cited from earlier work
# [10] = system: proliferating IH; details: topical 0.5% solution or gel; cited from earlier work
# Sequence of ACE (P12821 30-1306, species assumed): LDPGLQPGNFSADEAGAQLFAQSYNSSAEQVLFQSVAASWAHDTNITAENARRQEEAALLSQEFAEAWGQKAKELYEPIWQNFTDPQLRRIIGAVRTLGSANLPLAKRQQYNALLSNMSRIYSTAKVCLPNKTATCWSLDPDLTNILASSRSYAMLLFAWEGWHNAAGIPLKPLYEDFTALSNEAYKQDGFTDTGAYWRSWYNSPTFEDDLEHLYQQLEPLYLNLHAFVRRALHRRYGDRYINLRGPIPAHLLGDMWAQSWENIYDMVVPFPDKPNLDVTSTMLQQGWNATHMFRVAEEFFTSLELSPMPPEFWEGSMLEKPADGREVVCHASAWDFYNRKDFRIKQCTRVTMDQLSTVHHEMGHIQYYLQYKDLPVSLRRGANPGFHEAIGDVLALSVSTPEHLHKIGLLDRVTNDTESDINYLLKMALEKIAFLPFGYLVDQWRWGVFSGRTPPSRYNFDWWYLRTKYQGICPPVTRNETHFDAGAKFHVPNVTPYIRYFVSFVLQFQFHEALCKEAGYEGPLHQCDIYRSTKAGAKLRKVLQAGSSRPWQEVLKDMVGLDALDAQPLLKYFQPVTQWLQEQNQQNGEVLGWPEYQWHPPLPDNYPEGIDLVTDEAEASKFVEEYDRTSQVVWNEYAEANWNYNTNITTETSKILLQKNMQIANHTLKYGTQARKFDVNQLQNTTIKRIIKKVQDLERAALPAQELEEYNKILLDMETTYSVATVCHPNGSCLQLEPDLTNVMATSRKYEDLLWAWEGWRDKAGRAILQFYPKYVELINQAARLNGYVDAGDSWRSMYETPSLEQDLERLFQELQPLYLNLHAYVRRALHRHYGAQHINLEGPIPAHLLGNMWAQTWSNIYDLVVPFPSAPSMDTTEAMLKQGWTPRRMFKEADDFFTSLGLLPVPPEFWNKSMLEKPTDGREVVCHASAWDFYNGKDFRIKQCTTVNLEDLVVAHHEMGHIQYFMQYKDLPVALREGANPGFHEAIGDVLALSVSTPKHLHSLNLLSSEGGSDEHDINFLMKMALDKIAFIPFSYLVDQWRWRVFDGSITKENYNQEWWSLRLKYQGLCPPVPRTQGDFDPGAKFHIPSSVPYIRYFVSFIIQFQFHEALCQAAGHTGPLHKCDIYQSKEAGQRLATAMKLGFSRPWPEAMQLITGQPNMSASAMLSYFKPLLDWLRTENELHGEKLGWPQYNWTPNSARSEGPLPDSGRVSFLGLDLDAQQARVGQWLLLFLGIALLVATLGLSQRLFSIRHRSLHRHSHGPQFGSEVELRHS
SMILES,inhibitory effect on haemangioma cell proliferation [1],increase in the inhibition of haemangioma cell proliferation compared to timolol ([1]; 24 hours),Individual Responders at 72 Hours with ≥30% Inhibition vs. Cells + Adjuvant ([2]; 1 μM),Individual Responders at 72 Hours with ≥30% Inhibition vs. Cells + Adjuvant ([2]; 10 μM),Results Summary [2],Estimated Optimal Dosage Range in vitro [2],inhibition of all five patient-derived haemangioma cell lines [2],dose-response across all cell lines [3],inhibition of proliferating hemangioma cells ([4]; 1 μM and 10 μM),Results Summary [4],inhibition at 1 µM [4],inhibition at 10 µM [4],IC50 [5],Log P ([6]; Table 1),log P [6],pKa [7],pKa ([7]; second value),Solubility [8],Half life: short or long acting [9],clinical response [10]
CCOC(=O)[C@H](CCc1ccccc1)N[C@H]1CCCN2CCC[C@@H](C(=O)O)N2C1=O [Cilazapril],diminishes over time,7 fold,1 μM - 1/5,10 μM - 4/5,Responder,1 to 10 µM,significantly inhibited,typical dose-response,good and similar level of inhibition,Responder,4.35%,60.5%,4 nM,0.8,0.8,3.4,6.5,5000 µg/mL,Long acting,
CC(C)(C)NC[C@H](O)COc1nsnc1N1CCOCC1 [Timolol],little effect; also recorded: consistent,,1 μM - 0/5,10 μM - 4/5,Responder,1 to 10 µM,significantly inhibited,,,Responder,11.1%,57%,,,,,,,,clinically beneficial response
